Measured values as given in ChEMBL document CHEMBL3217590, “Discovery of a new class of dithiocarbamates and rhodanine scaffolds as potent antifungal agents: synthesis, biology and molecular docking” (Medchemcomm, 2012).
≈ marks a conversion by molar mass, not a printed value.

What was measured:
Candida albicans [1] = assay: Anticandidal activity against Candida albicans MTCC183 after 24 to 48 hrs by broth microdilution technique; assay type: functional
Candida albicans [2] = assay: Anticandidal activity against amphotericin-B resistant Candida albicans after 24 to 48 hrs by broth microdilution technique; assay type: functional
Candida albicans [3] = assay: Anticandidal activity against Candida albicans isolated from patient after 24 to 48 hrs by broth microdilution technique; assay type: functional
Candida albicans [4] = assay: Antifungal activity against Candida albicans after 24 to 48 hrs by broth microdilution technique; assay type: functional
Candida albicans [5] = assay: Ratio of fluconazole MIC to compound MIC against amphotericin-B resistant Candida albicans after 24 to 48 hrs by broth microdilution technique; assay type: functional
Sporothrix schenckii [6] = assay: Ratio of clotrimazole MIC to compound MIC against Sporothrix schenckii after 72 to 96 hrs by broth microdilution technique; assay type: functional
Sporothrix schenckii [7] = assay: Ratio of fluconazole MIC to compound MIC against Sporothrix schenckii after 72 to 96 hrs by broth microdilution technique; assay type: functional
Candida albicans [8] = assay: Anticandidal activity against Candida albicans CDRI after 24 to 48 hrs by broth microdilution technique; assay type: functional
L929 [9] = assay: Cytotoxicity against mouse L929 cells assessed as morphological changes up to 3.12 ug/ml after 24 hrs by giemsa staining based phase contrast microscopy; assay type: cell-based; details: l929, 24 h
Candida albicans [10] = assay: Anticandidal activity against Candida albicans ATCC10231 after 24 to 48 hrs by broth microdilution technique; assay type: functional
Candida albicans [11] = assay: Anticandidal activity against Candida albicans ATCC-MYA 2950 after 24 to 48 hrs by broth microdilution technique; assay type: functional
Aspergillus fumigatus = assay: Antifungal activity against Aspergillus fumigatus after 72 to 96 hrs by broth microdilution technique; assay type: functional
L929 [12] = assay: Cytotoxicity against mouse L929 cells assessed as decline in cell survival at 12.5 to 50 ug/ml after 24 hrs by spectrophotometric analysis; assay type: cell-based; details: l929, 24 h
Candida albicans [13] = assay: Anticandidal activity against Candida albicans ATCC750 after 24 to 48 hrs by broth microdilution technique; assay type: functional
Sporothrix schenckii [14] = assay: Antifungal activity against Sporothrix schenckii after 72 to 96 hrs by broth microdilution technique; assay type: functional
Candida parapsilosis = assay: Antifungal activity against Candida parapsilosis ATCC22019 after 24 to 48 hrs by broth microdilution technique; assay type: functional; details: Lodderomyces parapsilosis
Cryptococcus neoformans = assay: Antifungal activity against Cryptococcus neoformans after 24 to 48 hrs by broth microdilution technique; assay type: functional
Candida albicans [15] = assay: Anticandidal activity against Candida albicans ATCC14053 after 24 to 48 hrs by broth microdilution technique; assay type: functional
[16] = test system: Trichophyton mentagrophytes; assay: Antifungal activity against Trichophyton mentagrophytes after 72 to 96 hrs by broth microdilution technique; assay type: functional

Row | SMILES | MIC (Candida albicans [1]) | MIC (Candida albicans [2]) | MIC (Candida albicans [3]) | MIC (Candida albicans [4]) | Ratio (Candida albicans [5]) | Ratio (Sporothrix schenckii [6]) | Ratio (Sporothrix schenckii [7]) | MIC (Candida albicans [8]) | Activity (L929 [9]) | MIC (Candida albicans [10]) | MIC (Candida albicans [11]) | MIC (Aspergillus fumigatus) | Activity (L929 [12]) | MIC (Candida albicans [13]) | MIC (Sporothrix schenckii [14]) | MIC (Candida parapsilosis) | MIC (Cryptococcus neoformans) | MIC (Candida albicans [15]) | MIC [16]
1 | CCCSC(=S)NCc1ccncc1 | 1.56 µg/mL (≈ 6.89 µM) | 3.12 µg/mL (≈ 13.8 µM) | 12.5 µg/mL (≈ 55.2 µM) | 6.25 µg/mL (≈ 27.6 µM) | 2 | 12 | 12 | 6.25 µg/mL (≈ 27.6 µM) | Non-toxic | 6.25 µg/mL (≈ 27.6 µM) | 12.5 µg/mL (≈ 55.2 µM) | 50 µg/mL (≈ 221 µM) | Toxic | 12.5 µg/mL (≈ 55.2 µM) | 0.39 µg/mL (≈ 1.72 µM) | 12.5 µg/mL (≈ 55.2 µM) | 12.5 µg/mL (≈ 55.2 µM) | 6.25 µg/mL (≈ 27.6 µM) | 3.12 µg/mL (≈ 13.8 µM)
2 | C=CCSC(=S)NCc1ccncc1 | 0.78 µg/mL (≈ 3.48 µM) | 6.25 µg/mL (≈ 27.9 µM) | 1.56 µg/mL (≈ 6.95 µM) | 1.56 µg/mL (≈ 6.95 µM) | 1 | 12 | 12 | 1.56 µg/mL (≈ 6.95 µM) | Non-toxic | 1.56 µg/mL (≈ 6.95 µM) | 1.56 µg/mL (≈ 6.95 µM) | 25 µg/mL (≈ 111 µM) | Toxic | 3.12 µg/mL (≈ 13.9 µM) | 0.39 µg/mL (≈ 1.74 µM) | 1.56 µg/mL (≈ 6.95 µM) | 3.12 µg/mL (≈ 13.9 µM) | 0.78 µg/mL (≈ 3.48 µM) | 3.12 µg/mL (≈ 13.9 µM)
3 | O=C1CSC(=S)N1Cc1ccncc1 | 0.78 µg/mL (≈ 3.48 µM) | 3.12 µg/mL (≈ 13.9 µM) | 6.25 µg/mL (≈ 27.9 µM) | 1.56 µg/mL (≈ 6.95 µM) | 2 | – | – | 6.25 µg/mL (≈ 27.9 µM) | Non-toxic | 6.25 µg/mL (≈ 27.9 µM) | 6.25 µg/mL (≈ 27.9 µM) | 12.5 µg/mL (≈ 55.7 µM) | Toxic | 6.25 µg/mL (≈ 27.9 µM) | 1.56 µg/mL (≈ 6.95 µM) | 6.25 µg/mL (≈ 27.9 µM) | 6.25 µg/mL (≈ 27.9 µM) | 1.56 µg/mL (≈ 6.95 µM) | 3.12 µg/mL (≈ 13.9 µM)
4 | O=C1/C(=C/c2ccc(F)cc2)SC(=S)N1Cc1ccncc1 | – | – | – | 12.5 µg/mL (≈ 37.8 µM) | – | 12 | 12 | – | Non-toxic | – | – | > 50 µg/mL | Toxic | – | 0.39 µg/mL (≈ 1.18 µM) | 25 µg/mL (≈ 75.7 µM) | 25 µg/mL (≈ 75.7 µM) | – | 3.12 µg/mL (≈ 9.44 µM)
5 | O=C1/C(=C/c2ccncc2)SC(=S)N1Cc1ccncc1 | 0.78 µg/mL (≈ 2.49 µM) | 3.12 µg/mL (≈ 9.96 µM) | 3.12 µg/mL (≈ 9.96 µM) | 1.56 µg/mL (≈ 4.98 µM) | 2 | – | – | 3.12 µg/mL (≈ 9.96 µM) | Non-toxic | 1.56 µg/mL (≈ 4.98 µM) | 1.56 µg/mL (≈ 4.98 µM) | 25 µg/mL (≈ 79.8 µM) | Toxic | 6.25 µg/mL (≈ 19.9 µM) | 3.12 µg/mL (≈ 9.96 µM) | 1.56 µg/mL (≈ 4.98 µM) | 1.56 µg/mL (≈ 4.98 µM) | 6.25 µg/mL (≈ 19.9 µM) | 3.12 µg/mL (≈ 9.96 µM)
